Peptide text beside a SMILES is read from it.

Holding throughout (type): cell-based
Test [1] addresses T1, YdgR (Escherichia coli, UniProt P77304).
T1 construct: gene dtpA; full-length, C-terminal His6 tag, expressed in E. coli BL21(DE3) pLysS, whole-cell uptake
T1 sequence (P77304 1-500): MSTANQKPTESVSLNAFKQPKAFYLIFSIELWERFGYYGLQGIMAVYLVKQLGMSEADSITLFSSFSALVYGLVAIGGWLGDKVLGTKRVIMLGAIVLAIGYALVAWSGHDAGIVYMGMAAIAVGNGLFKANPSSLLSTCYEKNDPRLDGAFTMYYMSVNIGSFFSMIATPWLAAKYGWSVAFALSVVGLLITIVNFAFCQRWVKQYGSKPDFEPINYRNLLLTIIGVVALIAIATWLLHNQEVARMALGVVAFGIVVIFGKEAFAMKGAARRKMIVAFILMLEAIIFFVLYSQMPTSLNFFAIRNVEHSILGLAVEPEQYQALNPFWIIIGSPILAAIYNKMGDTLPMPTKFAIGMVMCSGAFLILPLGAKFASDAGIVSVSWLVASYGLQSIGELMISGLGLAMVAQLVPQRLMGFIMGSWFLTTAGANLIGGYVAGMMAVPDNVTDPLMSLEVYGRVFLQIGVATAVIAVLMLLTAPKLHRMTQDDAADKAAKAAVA
As to the kind of experiment: inhibition of β-Ala-Lys-AMCA uptake in E. coli. As to conditions: 10 mM peptide, 0.5 mM labelled substrate β-Ala-Lys-AMCA, pH 6.5, 37 °C; competing substrate.

A further test has as its target T2, YjdL (Escherichia coli, UniProt P39276).
T2 construct: gene dtpC; full-length, C-terminal His6 tag, expressed in E. coli BL21(DE3) pLysS, whole-cell uptake
T2 sequence (P39276 1-485): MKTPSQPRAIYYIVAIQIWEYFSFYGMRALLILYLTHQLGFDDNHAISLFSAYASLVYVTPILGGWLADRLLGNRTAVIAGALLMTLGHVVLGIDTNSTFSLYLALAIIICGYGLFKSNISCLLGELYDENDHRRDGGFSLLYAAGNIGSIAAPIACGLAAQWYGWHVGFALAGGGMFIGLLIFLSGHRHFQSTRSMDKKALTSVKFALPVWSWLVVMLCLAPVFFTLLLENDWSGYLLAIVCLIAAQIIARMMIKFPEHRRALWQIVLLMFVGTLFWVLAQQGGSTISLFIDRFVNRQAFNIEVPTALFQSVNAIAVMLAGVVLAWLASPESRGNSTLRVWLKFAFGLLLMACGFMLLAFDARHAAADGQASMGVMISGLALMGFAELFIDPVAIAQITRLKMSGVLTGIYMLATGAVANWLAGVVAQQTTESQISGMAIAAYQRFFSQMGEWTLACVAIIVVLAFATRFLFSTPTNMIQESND
The experiment in a line: fluorescent uptake in E. coli. As to conditions: 0.5 mM, labelled compound, cells preloaded with AA, with and without CCCP, 37 °C.

For test [2], the target named is T1, YdgR. The experiment in a line: fluorescent uptake in E. coli. The following applies: 0.5 mM, labelled compound, pH 6.5, 37 °C.

As for `C[C@H](N)C(=O)N[C@@H](C)C(=O)O` [AA] (H-Ala-Ala-OH), the uptake inhibition entry at YdgR [1] was “its uptake was significantly decreased in the presence of AA and AAA”.
`Cc1c(CC(=O)NCCCC[C@H](NC(=O)CCN)C(=O)O)c(=O)oc2cc(N)ccc12` [β-Ala-Lys-AMCA]: the “fluorescent uptake in E. coli” value on YjdL was “YjdL and YdgR exhibited a significant decline in uptake activity in the presence of CCCP”; at YdgR [2], “Overall β-Ala-Lys-AMCA uptake by CPEPOT was significantly lower than YdgR”.

Values taken from article PMC10215352 (Biology, 2023).
